The text below walks through data of PMC6127852 (Journal of Enzyme Inhibition and Medicinal Chemistry, 2018).

The test system of assay [1] is polyA-polyU (RNA, polymer) A/U. Nature of the assay: UV-Vis titration, Scatchard. The conditions noted are these: PBS, pH 7; changes too small for accurate calculation; compound 14.8 µM.
Assay [2] relates to polyG-polyC (polyC-polyG) (RNA, polymer) G/C. The experiment in a line: UV-Vis titration, Scatchard. As to conditions: PBS, I = 0.05 M (Table 1 says I = 0.015 M), cations not specified, I = 0.015 M (Methods: 0.05 M), pH 7, per base.
A further assay concerns S. aureus MRSA. The experiment in a line: Broth microdilution MIC, MRSA clinical strain. Type of assay: cell-based. As to conditions: Staphylococcus aureus, antibiotic-resistant clinical strain. As for the experimental part: (§1) The compounds were evaluated for their in vitro anti-bacterial activity against Gram-positive bacteria: S. aureus (ATCC 25923), MRSA, methicillin-sensitive S. aureus (MSSA), E. faecalis, vancomycin-resistant E. faecium (VREF), and Gram-negative bacteria: E. coli (ATCC 25925), P. aeruginosa (ATCC 27853), A. baumannii (ATCC 19606) and ESBL-producing K. pneumoniae (ATCC 27736). Standard broth microdilution method as recommended in guidelines of Clinical and Laboratory Standards Institute[61] ^, [65] ^, [66] was applied and the minimum inhibitory concentration (MIC) of compounds was tested. In short, testing was performed in U-bottomed 96-well sterile plastic microdilution trays (Falcon 3077, Becton Dickinson Labware, Franklin Lakes, NJ) in cation (Ca^2+ and Mg^2+) adjusted Mueller–Hinton broth medium (Becton Dickinson and Co., Cockeysville, MD). All testings were performed in triplicate.
For orientation: In broth dilution the organism is exposed to a series of concentrations in liquid medium.

Another assay has as its system E. faecalis ATCC 29212. The experiment in a line: Broth microdilution MIC, E. faecalis ATCC 29212. Type of assay: cell-based. The conditions noted are these: Enterococcus faecalis, ATCC29212; Table S2. As for the experimental part:
as §1
(§2) The in vitro anti-bacterial activity of 5-amidinobenzimidazoles 7a–7e, 8a–8e, and 9a–9e was tested against Gram-positive bacteria including S. aureus (ATCC 25923), Enterococcus faecalis (ATCC 29212), and Gram-negative bacteria including E. coli (ATCC 25925), K. pneumoniae (ATCC 700803), P. aeruginosa (ATCC 27853), and Acinetobacter baumannii (ATCC 19606).

The test system of another assay is E. faecium VRE. The experiment in a line: Broth microdilution MIC, VRE clinical strain. The format is cell-based. The conditions noted are these: Enterococcus faecium. As for the experimental part:
as §1

Another assay deals with S. aureus ATCC 25923. The experiment in a line: Broth microdilution MIC, S. aureus ATCC 25923. Type of assay: cell-based. The conditions noted are these: Staphylococcus aureus, ATCC25923; Table S2. As for the experimental part: as §1, §2
The test system of the next assay is S. aureus MSSA. The experiment in a line: Broth microdilution MIC, MSSA clinical strain. The format is cell-based. As to conditions: Staphylococcus aureus. The procedure:
as §1

Another assay has as its system A. baumannii ATCC 19606. The experiment in a line: Broth microdilution MIC, A. baumannii ATCC 19606. The format is cell-based. The conditions noted are these: Acinetobacter baumannii, ATCC19606; Table S2. As for the experimental part:
as §1, §2

In the next assay the test system is P. aeruginosa ATCC 27853. Nature of the assay: Broth microdilution MIC, P. aeruginosa ATCC 27853. As to conditions: Pseudomonas aeruginosa, ATCC27853; Table S2. The format is cell-based. As for the experimental part:
as §1, §2

Another assay relates to E. coli ATCC 25925. The experiment in a line: Broth microdilution MIC, E. coli ATCC 25925. The conditions noted are these: Escherichia coli, ATCC25925; Table S2. The format is cell-based. As for the experimental part: as §1, §2
In another assay the test system is K. pneumonia ATCC 700803. The experiment in a line: Broth microdilution MIC, K. pneumoniae ATCC 700803. Type of assay: cell-based. As to conditions: Klebsiella pneumoniae, ATCC700803; Table S2. As for the experimental part:
as §1, §2

In brackets after ≈: the same amount, converted by molar mass.

For `COc1ccc(-n2cc(COc3ccc(-c4nc5ccc(C(=N)N)cc5[nH]4)cc3)nn2)cc1`, the binding result in assay [1] was “weak”. Also, in [2], the “log Ks” value was 6.27.
In general, MIC refers to the smallest concentration in the dilution series that meets the test's criterion for growth inhibition. In the case of `CC1(C)S[C@@H]2[C@H](NC(=O)[C@H](N)c3ccccc3)C(=O)N2[C@H]1C(=O)O` [Ampicillin, ampicillin, reference compound], the MIC came to 4 µg/mL (≈ 11.4 µM) in the assay on S. aureus MRSA; 2 µg/mL (≈ 5.72 µM) in the assay with E. faecalis ATCC 29212; 1 µg/mL (≈ 2.86 µM) in the assay with E. faecium VRE; 1 µg/mL (≈ 2.86 µM) with S. aureus ATCC 25923; 1 µg/mL (≈ 2.86 µM) against S. aureus MSSA.
Consider `O=C(O)c1cn(C2CC2)c2cc(N3CCNCC3)c(F)cc2c1=O` [Ciprofloxacin, ciprofloxacin, reference compound], for which the MIC against A. baumannii ATCC 19606 is 0.06 µg/mL (≈ 0.181 µM); in the assay with P. aeruginosa ATCC 27853, 0.5 µg/mL (≈ 1.51 µM); in the assay on E. coli ATCC 25925, 0.004 µg/mL (≈ 0.0121 µM); in the assay on K. pneumonia ATCC 700803, 0.06 µg/mL (≈ 0.181 µM).
In the case of `CNC(C)C1CCC(N)C(OC2C(N)CC(N)C(OC3OCC(C)(O)C(NC)C3O)C2O)O1` (stereo not shown) [Gentamicin, gentamicin, reference compound], the MIC against S. aureus MRSA is 0.25 µg/mL (≈ 0.523 µM); in the assay with E. faecalis ATCC 29212 it was 8 µg/mL (≈ 16.8 µM); against E. faecium VRE, 0.25 µg/mL (≈ 0.523 µM); against S. aureus ATCC 25923, 0.125 µg/mL (≈ 0.262 µM); against S. aureus MSSA, 0.125 µg/mL (≈ 0.262 µM).
